Experimental findings from article PMC11768839 (Viruses, 2024) are described below.

Structures are written as SMILES.

One experiment concerns influenza PR8. Type of experiment: cell-based, Influenza A virus PR8.

On to `O=[N+]([O-])c1ccc(Nc2ccc(Cl)c(C(F)(F)F)c2)c2nonc12` [Compound 5342191, N-[4-chloro-3-(trifluoromethyl)phenyl]-7-nitro-2,1,3-benzoxadiazol-4-amine], for which the “sensitivity of selected influenza PR8 virus to EC90 dose” value in the experiment on influenza PR8 is on record as “remained sensitive”. In the experiment with HCoV-229E, the “sensitivity of selected HCoV-229E virus to EC90 dose” value was “remained sensitive”.
